# US8377883B2, “Peptide for anti-angiogenesis and use thereof” (Beijing Institute for Cancer Research, priority 2006, dated 2013)
# Key:
# [1] = system: D2F2 cells (Balb/c mouse-derived breast carcinoma cell); experiment: MTT proliferation of D2F2 cells; assay type: cell-based; details: 25 μg/ml PBS, ninety six hours
# Method: To investigate direct effects of FpAT on tumor cells in vitro, the influence of FpAT on the proliferation of D2F2 cell (Balb/c mouse-derived breast carcinoma cell) was examined using MTT in this example.
# D2F2 cells (Mahoney K H, Miller B E, Heppner G H. FACS quantitation of leucine aminopeptidase and acid phosphatase on tumor-associated macrophages from metastatic and nonmetastatic mouse mammary tumors. J Leukoc Biol. 1985 November; 38(5): 573-85.) were cultured conventionally. The cultured D2F2 cells were digested with 0.04% trypsin-EDTA, and inoculated into 96-well plate at 3×10^3 cells/well; after 24 hours of culture, PBS and FpAT (25 μg/ml PBS) were added separately, with 4 parallel wells per group. Ninety six hours later, 20 μl MTT solution of mass concentration of 5 mg/ml was added to each well. After the culture was performed continuously for 4 hours, the original culture medium was discarded and 200 μl DMSO was added to each well, and then it was shaken for 15 minutes. After mixed well, OD value (measured at a wavelength of 570 nm) of each well was measured in a microplate reader, and the cell suppression rates were calculated according to the following formula: cell suppression rate=(mean OD value of blank control group−mean OD value of treated group)/mean OD value of blank control group×100%.
# [2] = system: chick chorioallantoic membrane vessel; experiment: Proliferation of chick chorioallantoic membrane vessel; details: 10 μl of 1 μg/μL on glass fiber filter membrane, 24 hours
# Method: In this example an experiment of proliferation of chick chorioallantoic membrane vessel was carried out to test suppressing effects of FpAT on angiogenesis.
# The test was performed according to the method described in the reference “Fu Shengfa, Lu yinglin, Zhang Chaoshan et al., A chick chorioallantoic membrane technique to test function of vascular growth factors, Bulletin of the Academy of Military Medical Sciences 1993, 17:294-97”. Fresh fertilized hen eggs were immersed into 0.1% benzalkonium bromide solution at 38° C. for 2 minutes, and then incubated in an incubator at 37.5° C. in a humidity of 60-70% for 3 days. Then the eggs with shell removed were transferred to plate and cultured. The samples were separated into groups and administered when the allantoic membrane grew to about 2 cm^2, 5 chicken embryos per group. 10 μl of FpAT (1 μg/μL), PBS (negative control) was dropped on a glass fiber filter membrane of Φ4 mm, which was placed at distal end of chorioallantoic membrane, and cultured for 24 hours. The results were observed and recorded by taking photos. The experiment was repeated twice.
# [3] = system: human umbilical vein endothelial cells (HUVECs); experiment: Microfilament skeleton of HUVECs by confocal microscope; assay type: cell-based; details: 10, 25, 100 μg/ml; 48, 72, 96 hours
# Method: Human umbilical cord samples (obtained from Beijing Obstetrics & Gynecology Hospital) was digested with 0.1% collagenase I (available from GIBCO BRL company), followed by a centrifugation (1000 rpm, 10 minutes) to collect human umbilical vein endothelial cells (HUVECs). After suspended in 20% FCS/RPMI1640, the cells were transferred into plastic bottles for culture in CO2 incubator (37° C., 5% CO2). Twelve hours later, unattached cells were discarded by changing medium, and then the remaining cells were cultured conventionally with the medium changed every 3 days. The cultured HUVECs were digested with 0.04% trypsin-EDTA, and inoculated into 24-well plate at 2×10^4 cells/well; and the vehicle (PBS) and FpAT (10 μg/ml, 25 μg/ml, 100 μg/ml) were added separately, with 3 parallel wells per group. […] After washing twice with PBS, Hoechst was added to stain nucleus. After washed once with PBS, the slide was mounted with mounting solution, and stored at 4° C. in the dark. The change of cytoskeleton was observed employing a confocal microscope.
# [4] = system: human lung cancer PG cells; experiment: Tumor suppression in human lung cancer PG tumor-bearing nude mice model; assay type: in vivo, Balb/c nude mice; details: 50 μg/100 μl PBS/injection, angulus oculi medialis vein once every other day, 10 times; vs vehicle, P<0.05
# Method: In order to confirm the biological effects of FpAT on the growth of human deriving tumors in nude mice in vivo, a tumor suppression experiment was carried out in this example using human gastric carcinoma BGC-823 cells tumor-bearing nude mice model, human lung cancer PG cells tumor-bearing nude mice model and human colon cancer HT-29 cells tumor-bearing nude mice model.
# Twenty 5-week old Balb/c nude mice purchased from Animal Center Of Chinese Academy Of Medical Sciences were inoculated subcutaneously in forelimb with human gastric carcinoma BGC-823 cells (National Institute for the Control of Pharmaceutical and Biological Products) (5×10^6/100 μl/mouse), human lung cancer PG cells (National Institute for the Control of Pharmaceutical and Biological Products) (5×10^6/100 μl/mouse) or human colon cancer HT-29 cells (ATCC® Number: HTB-38™) (5×10^6/100 μl/mouse). On the next day after inoculation, each kind of inoculated cells were divided into 2 groups randomly with 5 mice per group. […] Observation was continued for another 20 days after administration was stopped, and during this period the long and short diameters of the tumors were measured with a vernier caliper once every three days, and the volumes of the tumor mass were calculated according to formula ½×long diameter×short diameter^2. […]
substance,measurement,setting,value
"H2N-Asp-Ser-Gly-Glu-Gly-Asp-Phe-Leu-Ala-Glu-Gly-Gly-Gly-Val-Arg-COOH (H-DSGEGDFLAEGGGVR-OH; listed as Homo sapiens) [FpAT, fibrinopeptide A truncated, carboxyl terminal 15 amino acids of fibrinopeptide A]",suppression of D2F2 cell proliferation,[1],can not suppress D2F2 cells in vitro
same,blood vessel distribution and original blood vessel,[2],inducing disorder of blood vessel distribution and atrophy of original blood vessel
same,blood vessel formation,[2],suppressing remarkably blood vessel formation
same,microfilament disassembly in HUVECs,[3],can induce the microfilament disassembly
same,growth of human lung cancer PG cells in nude mice (tumor mass),[4],could suppress the growths
